Measured values: US9557338B2 (SIGNAL PHARMACEUTICALS, LLC, priority 2012, dated 2017)
Read-outs that look alike come from different tables or passages of the source.

What was measured:
Type in all cases: cell-based
[1] = tested on: p70S6K; assay: Luminex multiplex assay, p70S6K phosphorylation in cell lysates
Source text: (§1) The multiplex Luminex assay format differs from conventional enzyme-linked immunosorbent assay (ELISA) in that the multiplex capture antibody is attached to a polystyrene bead whereas the ELISA capture antibody is attached to the microplate well. The use of the suspension bead-based technology enables the multiplexing capabilities of the Luminex assays. The xMAP® technology uses 5.6 micron polystyrene microspheres, which are internally dyed with red and infrared fluorophores of differing intensities. Each bead is given a unique number, or bead region, allowing differentiation of one bead from another. Beads covalently bound to different specific antibodies can be mixed in the same assay, utilizing a 96-well microplate format. At the completion of the sandwich immunoassay, beads can be read, using the Luminex 100™ or Luminex 200 detection system, in single-file by dual lasers for classification and quantification of each analyte. The Akt-Pathway Phospho 5-plex kit used was custom made and includes the ability to simultaneously measure p-GSK3β (S9), p-PRAS40(T246), and p-4E-BP1(T46).
(§2) Cells were plated at the required density. The cells were treated with either Compound 1 or rapamycin over a range of concentrations for 1 hour in 5% CO2 at 37° C. Compound 1 and rapamycin were used at the same concentrations as for the proliferation assay. As for the cell proliferation assay, a reference standard was included in the assay for PC3 cells and the coefficient of variation for assay of p-GSK3β(S9) was 37.8% (n=30), p-PRAS40(T246) was 27.8% (n=30) and for p4E-BP1(T46) was 13.5% (n=4). For three cell lines (HCT-116, MDA-MB-231 and HT29) in the assay for phosphorylation of GSK3β, PRAS40 and 4E-BP1, IGF-I stimulation (500 ng/mL, recombinant human IGF-I) for the last 10 min of incubation was used. The media was aspirated from the wells and the plate was placed on ice. Then 35 μL of Lysis Buffer was added to each well and incubated on ice for at least 30 minutes. During the incubation, the standard curve for each phosphoprotein was prepared. The standards provided were reconstituted and serial dilutions were prepared according to the manufacturer's instructions. At the end of the cell lysis step, […] of the lysate was transferred to a V-bottom plate and spun at 4° C. at 2000 rpm for 5 minutes. Both the 1× Luminex bead and 1× detector antibody solutions were prepared during this time. The 1× bead solution was vortexed and 25 μL was added into each well of a black round bottom plate. Then 50 μL of the 1× detector antibody was added to each well. Fifty microliters (50 μL) of the prepared standards were added to the designated wells. Then 25 μL of the assay diluent was added to each well designated for the compound-treated cell lysates. At the end of the spin, 25 μL of cell lysate was added to the corresponding wells of the black assay plate. The assay plate was covered with the white plate lid and incubated for 3 hours at room temperature on an orbital shaker.
(§3) Approximately 10-15 minutes prior to the end of the first incubation, the secondary antibody solution was prepared according to the vendor's protocol. Goat anti-rabbit R-phycoerythrin red fluorescent protein (RPE) supplied as a 10× concentrate was diluted to generate a 1× goat anti-rabbit RPE stock. The 96-well filter plate was pre-wet with 200 μL of 1× Working wash solution. At the end of the 3 hour incubation, a multichannel pipette was used to transfer the entire contents from each assay well into the wells of the filter plate. The liquid from the wells was removed by aspiration with the vacuum manifold. Then 200 μL of 1× Working wash solution was added into each well. The wash solution was aspirated using the vacuum manifold after 15-30 seconds. This wash step was repeated one time. The bottom of the plate was blotted on clean paper towels to remove residual liquid. […]

[2] = tested on: Phospho-GSK3β(S9); assay: Luminex multiplex assay, Phospho-GSK3β(S9)
Source text: (§4) Determination of Phospho-GSK3β(S9), Phospho-PRAS40(T246) and Phospho-4E-BP1(T46) and the Effect of Compound 1 or Rapamycin.
as §1, §2, §3

[3] = tested on: Phospho-PRAS40(T246); assay: Luminex multiplex assay, Phospho-PRAS40(T246)
Source text: as §4, §1, §2, §3

[4] = Homo sapiens, HCT-116, HCT116 cell line, IGF, read-out: Luminex p70S6K (IGF)
[5] = Homo sapiens, U-87 MG, U87MG cell line, read-out: Luminex p70S6K
[6] = Homo sapiens, HCT-116, HCT116 cell line, IGF, read-out: Luminex GSK-3β (IGF)
[7] = Homo sapiens, U-87 MG, U87MG cell line, read-out: Luminex GSK-3β
[8] = Homo sapiens, HCT-116, HCT116 cell line, IGF, read-out: Luminex PRAS40 (IGF)
[9] = Homo sapiens, U-87 MG, U87MG cell line, read-out: Luminex PRAS40
[10] = PC3 cell line, read-out: Luminex p70S6K
[11] = PC3 cell line, read-out: Luminex GSK-3β
[12] = PC3 cell line, read-out: Luminex PRAS40

Row | IC50 [1, 10] | IC50 [2, 11] | IC50 [3, 12] | further results | SMILES
1 | – | – | – | IC50 [1, 4]: 2120 nM; IC50 [1, 5]: 526 nM; IC50 [2, 6]: 1740 nM; IC50 [2, 7]: 1220 nM; IC50 [3, 8]: 2610 nM; IC50 [3, 9]: 1660 nM | CC(C)(O)c1ccc(-c2cnc3c(n2)N(CC2CCOCC2)CC(=O)N3)cn1 [A-1, 6-(6-(2-hydroxypropan-2-yl)pyridin-3-yl)-4-((tetrahydro-2H-pyran-4-yl)methyl)-3,4-dihydropyrazino[2,3-b]pyrazin-2(1H)-one]
2 | – | – | – | IC50 [1, 4]: 1240 nM; IC50 [1, 5]: 433 nM | CCn1c(=O)[nH]c2ncc(-c3ccc(-c4nnc[nH]4)nc3C)nc21 [A-2, 1-ethyl-6-(2-methyl-6-(4H-1,2,4-triazol-3-yl)pyridin-3-yl)-1H-imidazo[4,5-b]pyrazin-2(3H)-one]
3 | – | – | – | IC50 ([1]; HCT116 cell line, IGF, read-out: Luminex p70S6K (IGF)): 1820 nM; IC50 ([1]; U87MG cell line, read-out: Luminex p70S6K): 435 nM; IC50 ([2]; HCT116 cell line, IGF, read-out: Luminex GSK-3β (IGF)): 1290 nM; IC50 ([2]; U87MG cell line, read-out: Luminex GSK-3β): 1470 nM; IC50 ([3]; HCT116 cell line, IGF, read-out: Luminex PRAS40 (IGF)): 1370 nM; IC50 ([3]; U87MG cell line, read-out: Luminex PRAS40): 1160 nM | CO[C@H]1CC[C@H](N2CC(=O)Nc3ncc(-c4ccc(C(C)(C)O)nc4)nc32)CC1 [A-3, 6-(6-(2-hydroxypropan-2-yl)pyridin-3-yl)-4-((1r,4r)-4-methoxycyclohexyl)-3,4-dihydropyrazino[2,3-b]pyrazin-2(1H)-one]
4 | – | – | – | IC50 [1, 4]: 96.6 nM; IC50 [1, 5]: 27.8 nM; IC50 [2, 6]: 96.2 nM; IC50 [2, 7]: 71 nM; IC50 [3, 8]: 120 nM; IC50 [3, 9]: 98 nM | Cc1nc(-c2nnc[nH]2)ccc1-c1cnc2c(n1)N(CCC1CCOCC1)C(=O)CN2 [A-4, 7-(2-methyl-6-(4H-1,2,4-triazol-3-yl)pyridin-3-yl)-1-(2-(tetrahydro-2H-pyran-4-yl)ethyl)-3,4-dihydropyrazino[2,3-b]pyrazin-2(1H)-one]
5 | – | – | – | IC50 [1, 4]: 514 nM; IC50 [1, 5]: 104 nM; IC50 [2, 7]: 2160 nM; IC50 [3, 8]: 762 nM; IC50 [3, 9]: 1090 nM | COCCN1CC(=O)Nc2ncc(-c3ccc(-c4nnc[nH]4)nc3C)nc21 [A-5, 4-(2-methoxyethyl)-6-(2-methyl-6-(4H-1,2,4-triazol-3-yl)pyridin-3-yl)-3,4-dihydropyrazino[2,3-b]pyrazin-2(1H)-one]
6 | – | – | – | IC50 [1, 4]: 654 nM; IC50 [1, 5]: 162 nM; IC50 [2, 7]: 2470 nM; IC50 [3, 8]: 492 nM; IC50 [3, 9]: 3240 nM | CC(C)(O)c1ccc(-c2cnc3c(n2)N(CC2CCOCC2)CC(=O)N3)cc1 [A-6, 6-(4-(2-hydroxypropan-2-yl)phenyl)-4-((tetrahydro-2H-pyran-4-yl)methyl)-3,4-dihydropyrazino[2,3-b]pyrazin-2(1H)-one]
7 | – | – | – | IC50 [1, 4]: 470 nM; IC50 [1, 5]: 145 nM; IC50 [2, 7]: > 5000 nM; IC50 [3, 8]: 1020 nM; IC50 [3, 9]: 2850 nM | CCn1c(=O)[nH]c2ncc(-c3ccc(-c4nc[nH]n4)c(F)c3C)nc21 [A-7, 1-ethyl-6-(3-fluoro-2-methyl-4-(1H-1,2,4-triazol-3-yl)phenyl)-1H-imidazo[4,5-b]pyrazin-2(3H)-one]
8 | – | – | – | IC50 [1, 4]: 91 nM; IC50 [1, 5]: 35.5 nM; IC50 [2, 7]: 402 nM; IC50 [3, 8]: 160 nM; IC50 [3, 9]: 255 nM | C[C@@H](O)c1ccc(-c2cnc3c(n2)N(CCC2CCOCC2)C(=O)CN3)cn1 [A-8, (R)-7-(6-(1-hydroxyethyl)pyridin-3-yl)-1-(2-(tetrahydro-2H-pyran-4-yl)ethyl)-3,4-dihydropyrazino[2,3-b]pyrazin-2(1H)-one]
9 | 557 nM | > 1500 nM | > 1500 nM | – | CC(C)(O)c1ccc(-c2cnc3[nH]c(=O)n(CC4CCCCC4)c3n2)cc1 [C-1]
10 | 247 nM | 2590 nM | 1300 nM | – | CC(C)(O)c1ccc(-c2cnc3[nH]c(=O)n(CCC4CCOCC4)c3n2)cn1 [C-3]
11 | 134 nM | 1110 nM | 678 nM | – | CC(C)(O)c1ccc(-c2cnc3c(n2)N(CCC2CCOCC2)CC(=O)N3)cn1 [C-4]
12 | 156 nM | 964 nM | 1750 nM | – | CC(C)(O)c1ccc(-c2cnc3c(n2)N(CC2CCOCC2)CC(=O)N3)cn1 [C-5]
13 | 34 nM | 179 nM | 140 nM | – | CC(C)(O)c1ccc(-c2cnc3c(n2)N(CCC2CCOCC2)C(=O)CN3)cn1 [C-7]
14 | 116 nM | 627 nM | 688 nM | – | CO[C@H]1CC[C@H](N2CC(=O)Nc3ncc(-c4ccc(C(C)(C)O)nc4)nc32)CC1 [C-8]
15 | – | 1430 nM | 624 nM | – | COCCN1CC(=O)Nc2ncc(-c3ccc(-c4nnc[nH]4)nc3C)nc21 [C-10]
16 | 201 nM | 1170 nM | 754 nM | – | CC(C)(O)c1ccc(-c2cnc3c(n2)N(CC2CCOCC2)CC(=O)N3)cc1 [C-11]
17 | 1 nM | 81 nM | – | – | COCCN1C(=O)CNc2ncc(-c3cnc(-c4nc[nH]n4)cc3C)nc21 [C-33]
18 | 815 nM | – | – | – | Cc1cc(-c2nnc[nH]2)ccc1-c1cnc2c(n1)NC(=O)CN2 [C-35]
19 | 16 nM | – | – | – | CO[C@@H]1CC[C@H](CN2CC(=O)Nc3ncc(-c4ccc(-c5nnc[nH]5)nc4C)nc32)C1 [C-36]
20 | 24 nM | – | – | – | CO[C@H]1CC[C@@H](CN2CC(=O)Nc3ncc(-c4ccc(-c5nnc[nH]5)nc4C)nc32)C1 [C-37]
21 | – | 738 nM | 1090 nM | – | CCN1CC(=O)Nc2ncc(-c3ccc(-c4nnc[nH]4)nc3C)nc21 [C-45]
22 | – | 218 nM | 144 nM | – | COC1CCC(CN2C(=O)CNc3ncc(-c4ccc(-c5nc[nH]n5)nc4C)nc32)CC1 (stereo not shown) [C-46]
23 | – | 58 nM | 55 nM | – | Cc1nc(-c2nnc[nH]2)ccc1-c1cnc2c(n1)N(C1CCOCC1)C(=O)CN2 [C-60]
24 | – | 15 nM | 12 nM | – | CO[C@H]1CC[C@@H](CN2C(=O)CNc3ncc(-c4ccc(-c5nc[nH]n5)nc4C)nc32)CC1 [C-66]
25 | – | 40 nM | 37 nM | – | Cc1nc(-c2nnc[nH]2)ccc1-c1cnc2c(n1)N(C1CCC(O)CC1)C(=O)CN2 (stereo not shown) [C-71]
26 | – | 310 nM | 105 nM | – | Cc1nc(-c2nnc[nH]2)ccc1-c1cnc2c(n1)N(C1CCC(O)CC1)C(=O)CN2 (stereo not shown) [C-72]
27 | – | 671 nM | 261 nM | – | Cc1nc(-c2nnc[nH]2)ccc1-c1cnc2c(n1)N(CCN1CCOCC1)C(=O)CN2 [C-73]
